Measured values reported in PubChem BioAssay (NCI).
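Values below derive from 48-hour exposures of cells grown in 96-well plates, with endpoints linearly interpolated between the two concentrations bracketing the appropriate inhibition level. TGI denotes the concentration required for complete inhibition of growth.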 Where a SMILES comes first, the peptide text is derived from it. The star is where a group is joined. Cbz = O=C(OCc1ccccc1)*

Experiments:
Assay in all cases: DTP human tumour cell line panel, 48 h
UO-31 renal = system: UO-31 renal
NCI-H522 lung = system: NCI-H522 lung
CCRF-CEM leukemia = system: CCRF-CEM leukemia
NCI-H23 lung = system: NCI-H23 lung
HCC-2998 colon = system: HCC-2998 colon
HOP-62 NSCLC = system: HOP-62 NSCLC
K-562 leukemia = system: K-562 leukemia
PC-3 prostate = system: PC-3 prostate
SF-295 CNS = system: SF-295 CNS
IGROV1 ovarian = system: IGROV1 ovarian

Row | SMILES | TGI (UO-31 renal) [µM] | TGI (NCI-H522 lung) [µM] | TGI (CCRF-CEM leukemia) [µM] | TGI (NCI-H23 lung) [µM] | TGI (HCC-2998 colon) [µM] | TGI (HOP-62 NSCLC) [µM] | TGI (K-562 leukemia) [µM] | TGI (PC-3 prostate) [µM] | TGI (SF-295 CNS) [µM] | TGI (IGROV1 ovarian) [µM]
1 | Nc1ncnc2c1ncn2[C@@H]1C[C@@H]1CO | > 100 | > 100 | > 100 | > 100 | > 100 | > 100 | > 100 | > 100 | > 100 | –
2 | O=C(Oc1ccccn1)c1cc2cc(CCl)ccc2oc1=O | > 100 | 30.3 | > 100 | 62.7 | > 100 | 52.9 | > 100 | 38.5 | > 100 | > 100
3 | Cn1c(=O)c(-c2ccccc2)c(N=[N+]=[N-])c2ccccc21 | > 100 | 75.5 | > 100 | > 100 | 47 | > 100 | > 100 | > 100 | > 100 | > 100
4 | Nc1nc(SC/C=C/c2ccccc2)c2[nH]cnc2n1 | > 100 | > 100 | > 100 | > 100 | > 100 | > 100 | > 100 | > 100 | > 100 | > 100
5 | N#CCCN(C(=O)Nc1ccccc1)[C@H]1CCCC[C@@H]1N(C(=O)Nc1ccccc1)c1ccccc1 | > 100 | > 100 | > 100 | > 100 | > 100 | > 100 | > 100 | > 100 | > 100 | > 100
6 | CN=C(N=Nc1c(O)[nH]c2ccccc12)SCC(=O)c1ccc(Br)cc1 | 3.79 | > 56.7 | 30.8 | 51.1 | 13.2 | 20.7 | > 100 | 29.4 | 49.6 | > 100
7 | COc1ccc(-[n+]2nc(S(=O)(=O)O)c(/C=C/c3ccc(N(C)C)cc3)cc2C#N)cc1 | > 100 | > 100 | > 100 | > 100 | > 100 | > 100 | > 100 | > 100 | > 100 | > 100
8 | CC1CCC(=O)C(C(=O)CC2CC(=O)N(C)C(=O)C2)C1 (stereo not given) | > 100 | > 100 | > 100 | > 100 | > 100 | > 100 | > 100 | > 100 | > 100 | > 100
9 | CC(CO)(CO)N1C(=O)C2C3C=CC(C3)C2C1=O (stereo not given) | > 100 | > 100 | > 100 | > 100 | > 100 | > 100 | > 100 | > 100 | > 100 | > 100
10 | O=C1C(c2c(O)[nH]c3ccc(F)cc23)=Nc2ccccc21 | > 100 | > 100 | > 100 | > 100 | > 100 | > 100 | > 100 | > 100 | > 100 | > 100
11 | NC(=O)C(C(N)=O)=C(O)C(=O)/C=C(\O)c1ccccc1 | > 100 | 36.2 | 52.5 | > 100 | > 100 | > 100 | 29.9 | > 100 | > 100 | > 100
12 | Cc1nc2c(nc1C)-c1[nH]c3c(c1C(=O)C2=O)CCCC3=O | 10.3 | 4.42 | 5.16 | 5.63 | 7.71 | 6.76 | 5.59 | 15.7 | 3.31 | 11.5
13 | O=c1c(/C=C/c2c(O)ccc3ccccc23)nnc2sc(-c3cccc(Br)c3)nn12 | 69.6 | 42.3 | 18.6 | 40.3 | 89 | > 100 | 77.7 | > 100 | > 100 | 15.8
14 | CCOC1OC(=O)c2cc3ccc4c(c3c(-c3ccc5c(c3)OCO5)c21)OCO4 (stereo not given) | > 100 | 6.9 | > 100 | > 55.3 | 20.3 | > 100 | > 100 | > 100 | 8.14 | > 100
15 | CC(O)C1(CNc2cc(Cl)nc(N)n2)CCC1 (stereo not given) | > 100 | > 100 | > 100 | > 100 | > 100 | > 100 | > 100 | > 100 | > 100 | > 100
16 | CSc1ncnc2c1ncn2CCC(=O)OC(C)(C)C | > 100 | > 100 | > 100 | > 100 | > 100 | > 100 | > 100 | > 100 | > 100 | > 100
17 | Cn1ccc(C(=O)NCCN(CCNC(=O)c2ccn(C)c(=O)c2O)CCNC(=O)c2cccc(=O)n2O)c(O)c1=O | > 100 | > 100 | > 100 | > 100 | > 100 | > 100 | > 100 | > 100 | > 100 | > 100
18 | O=C(Nc1nc(C23CC4CC(CC(C4)C2)C3)cs1)c1cc2ccc(O)cc2oc1=O | 31.2 | 45.6 | 68.1 | 38.4 | 43.3 | 36.8 | 68.2 | 35.4 | 48.4 | 33
19 | Cc1nn(-c2ccccc2)c2c1C(c1ccc(Cl)cc1)NC(=S)N2 (stereo not given) | 28.8 | 37.2 | 72.8 | 44.5 | – | 80.1 | > 100 | 47.9 | 62.3 | 28.1
20 | Fc1cc(-c2cc(-c3ccccc3)no2)c(Cl)cc1Cl | > 59.3 | > 34.5 | > 49.6 | > 34.2 | > 72 | > 54.8 | > 56.4 | > 50 | > 49.4 | > 50.8
21 | CN(C)CCCN1CCC2(CCC(C(C)(C)C)CC2)CC1 | 3.4 | 6.07 | 4.82 | 21.7 | 0.417 | 4.91 | 0.962 | 10.8 | 3.96 | 9.03

Row | SMILES | TGI (UO-31 renal) [µM] | TGI (NCI-H522 lung) [µM] | TGI (CCRF-CEM leukemia) [µM] | TGI (NCI-H23 lung) [µM] | TGI (HCC-2998 colon) [µM] | TGI (HOP-62 NSCLC) [µM] | TGI (K-562 leukemia) [µM] | TGI (PC-3 prostate) [µM] | TGI (SF-295 CNS) [µM] | TGI (IGROV1 ovarian) [µM]
22 | CCOC(=O)CC[C@H](NC(=O)[C@H](N)Cc1ccc(N(CCCl)CCCl)cc1)C(=O)OCC | 29.8 | 18.3 | > 49.6 | 12.9 | > 48.6 | > 59.6 | > 100 | > 75.1 | > 77.8 | > 65.7
23 | O=[N+]([O-])c1ccc2c(c1)C1=C(CO2)Cc2ccccc2O1 | 28.1 | 54.5 | > 100 | 59.2 | 35.3 | > 100 | > 100 | 38.6 | > 100 | 55.4
24 | CC12CC(c3ccccc3O1)C(C(=O)Nc1ccc(Cl)cc1Cl)C(=O)N2 (stereo not given) | 37.7 | > 100 | 30.1 | > 100 | > 100 | 48.4 | > 100 | > 100 | > 100 | 50.9
25 | CCOC(=O)CN1C(=O)c2ccc(NC(=O)C(=O)O)cc2S1(=O)=O | > 100 | > 100 | > 100 | > 100 | > 100 | > 100 | > 100 | > 100 | > 100 | > 100
26 | CC1OC(OC2C(O)COC(OC3C(C)OC(OC4C(OC(=O)[C@]56CCC(C)(C)C[C@@H]5C5=CCC7[C@@]8(C)C[C@H](O)[C@H](OC9OC(CO)C(O)C(O)C9O)[C@@](C)(CO)[C@@H]8CC[C@@]7(C)[C@]5(C)CC6)OCC(O)C4O)C(O)C3OC3OCC(O)(CO)C3O)C2O)C(O)C(O)C1O (stereo not given in full) | 14.2 | 35.7 | 44.7 | 27.1 | 14.7 | 34.5 | > 75 | 28.6 | 32.2 | 31.1
27 | O=Cc1[nH]c(=O)[nH]c(=O)c1C(=O)O | > 100 | > 100 | > 100 | > 100 | > 100 | > 100 | > 100 | > 100 | > 100 | > 100
28 | CCC(C)OC(=O)/C(Br)=C1/OC(=O)c2ccccc2-c2ccccc21 (stereo not given) | 73 | 44.3 | 52 | > 100 | 39.4 | 35.1 | 40.6 | > 100 | > 100 | –
29 | CC#CCOC(=O)c1ccccc1OC(C)=O | > 100 | > 100 | > 100 | > 100 | > 100 | > 100 | > 100 | > 100 | > 100 | > 100
30 | C[C@H](CCC(=O)O)[C@H]1CC[C@H]2[C@@H]3CC[C@@H]4C[C@H](O)CC[C@]4(C)[C@H]3C[C@H](O)[C@]12C | > 100 | 86.7 | 63.8 | > 100 | > 100 | 78.6 | > 100 | > 100 | 38.9 | 86.7
31 | COC(=O)C(Cc1c[nH]c2ccccc12)NP(=O)(O)OCC1OC(n2cc(I)c(=O)[nH]c2=O)CC1O (stereo not given) | > 100 | > 100 | > 100 | > 100 | – | > 100 | > 100 | > 100 | > 100 | > 100
32 | O=[N+]([O-])/C(C(Cl)=C(Cl)Cl)=C(/Cl)Sc1ccccc1 | 3.02 | 4.42 | 0.435 | 4.1 | 5.7 | 9.33 | 2.4 | 4.66 | 37.6 | 4.69
33 | C/C=C(/C)C(=O)O[C@@H]1CCN2CC[C@H](COC(=O)/C(=C/C)CO)C12 (stereo not given in full) | > 100 | > 100 | > 100 | > 100 | 44 | > 100 | 18.3 | > 100 | > 100 | > 100
34 | O=C(O)CCC(NC(=O)OCc1ccccc1)C(=O)NC(Cc1cnc[nH]1)C(=O)O (stereo not drawn) (Cbz-Glu-His-OH; configuration not given here) | > 100 | > 100 | > 100 | > 100 | > 100 | > 100 | > 100 | > 100 | > 100 | > 100
35 | Clc1ccc(C2C3COc4ccccc4C3=NN2c2ccccc2)cc1 (stereo not given) | > 100 | > 100 | > 37.7 | > 100 | > 100 | > 100 | 21.9 | > 100 | > 100 | > 100
36 | COc1cc2c(C)cc(O)cc2c2cc(O)c(C)cc12 | 19.1 | 27.3 | 18.2 | 21.5 | 24.4 | 15.5 | 9.94 | 19 | 23.8 | 29
37 | Cc1ccnc2[nH]c3ccccc3c(=O)c12 | > 100 | 32.9 | > 100 | 90.6 | 65 | > 100 | > 100 | 81.6 | > 100 | 49.5
38 | CC(=O)c1[nH]c(NCc2ccccc2)c(C(=S)Nc2ccccc2)c1N | 6.34 | 0.166 | > 100 | > 100 | 40.6 | 40 | 76.1 | > 100 | 66 | 14.1
39 | COc1cc(C2c3cc4c(cc3OC3(OC)COC(=O)C23)OCO4)cc(OC)c1OC(C)=O (stereo not given) | > 100 | 2.43 | > 100 | > 100 | 14.3 | 31.7 | > 100 | > 36.1 | 5.38 | > 100
40 | CSc1nc(Nc2cccc(C(F)(F)F)c2)c2c(N)nn(C)c2n1 | > 100 | > 100 | > 100 | > 100 | > 100 | > 100 | > 100 | > 100 | > 100 | > 100
41 | OC1C#CCSCC#C/C=C\1 (stereo not given) | > 100 | 32.9 | 98.4 | > 100 | > 100 | > 100 | 75.9 | > 100 | > 100 | > 100
42 | CN(CC(=O)O)c1ncc2c(n1)CCCC2 | > 100 | > 100 | > 100 | > 100 | – | > 100 | > 100 | > 100 | > 100 | > 100
